Data reported in patent US6476025B1, “Phenylphennanthridines with PDE-IV inhibiting activity” (Altana Pharma AG, priority 1999, dated 2002).

System: PDE4
Test: Inhibition of PDE4 activity (method of Bauer and Schwabe, adapted to microtiter plates)
Type: biochemical
Conditions: inhibitory concentration as −log IC50 (mol/l)
Method: The activity test was carried out according to the method of Bauer and Schwabe, which was adapted to microtiter plates (Naunyn-Schmiedeberg's Arch. Pharmacol. 1980, 311, 193-198). The PDE reaction takes place in the first step here. In a second step, the resulting 5′-nucleotide is cleaved by a 5′-nucleotidase of the snake venom of Crotalus atrox to the uncharged nucleoside. In the third step, the nucleoside is separated from the remaining charged substrate on ion-exchange columns. The columns are eluted directly into minivials, into which 2 ml of scintillator fluid are additionally added, for counting using 2 ml of 30 mM ammonium formate (pH 6.0).
The inhibitory values determined for the compounds according to the invention [inhibitory concentration as −log Ic50 (mol/l)] follow from the following Table A, in which the numbers of the compounds correspond to the numbers of the examples.

Compound	−log IC50, inhibition of the PDE4 activity
CCC(=O)c1ccc(C2=N[C@H]3CCCC[C@H]3c3cc(OC)c(OC)cc32)cc1 [Compound 50, (−)-cis-8,9-Dimethoxy-6-[4-propionylphenyl]-1,2,3,4,4a,10b-hexahydrophenanthridine]	7.98
COc1cc2c(cc1OC)[C@@H]1CCCC[C@@H]1N=C2c1cccc(Oc2ccncc2)c1 [Compound 37, (−)-cis-8,9-Dimethoxy-6-[3-(pyrid-4-yloxy)phenyl]-1,2,3,4,4a,10b-hexahydrophenanthridine]	7.92
COc1cc2c(cc1OC)C1CCCCC1N=C2c1ccc(OC)c(N2CCCC2)c1 (single isomer, unassigned; (-)) [Compound 46, (−)-cis-8,9-Dimethoxy-6-[(4-methoxy-3-pyrrolidin-1-yl)phenyl]-1,2,3,4,4a,10b-hexahydrophenanthridine]	7.16
COc1cc2c(cc1OC)[C@@H]1CCCC[C@@H]1N=C2c1ccc(S(=O)(=O)c2ccccc2)cc1 [Compound 34, (−)-cis-8,9-Dimethoxy-6-[4-(phenylsulfonyl)phenyl]-1,2,3,4,4a,10b-hexahydrophenanthridine]	7.89
COc1cc2c(cc1OC)[C@@H]1CCCC[C@@H]1N=C2c1cccc(Oc2ccccc2)c1 [Compound 5, (−)-cis-8,9-Dimethoxy-6-(3-phenoxyphenyl)-1,2,3,4,4a,10b-hexahydrophenanthridine]	8.54
COc1cc2c(cc1OC)C1CCCCC1N=C2c1ccc(CN2CCN(C)CC2)cc1 (single isomer, unassigned; (-)) [Compound 22, (−)-cis-8,9-Dimethoxy-6-[4-(4-methylpiperazin-1-ylmethyl)phenyl]-1,2,3,4,4a,10b-hexphenanthridine]	7.27
COc1cc2c(cc1OC)[C@@H]1CCCC[C@@H]1N=C2c1cccc(C(=O)c2ccccc2)c1 [Compound 3, (−)-cis-8,9-Dimethoxy-6-(3-benzoylphenyl)-1,2,3,4,4a,10b-hexahydrophenanthridine]	8.64
COc1ccc(C(=O)c2ccc(C3=N[C@H]4CCCC[C@H]4c4cc(OC)c(OC)cc43)cc2)cc1 [Compound 26, (−)-cis-8,9-Dimethoxy-6-[4-(4-methoxybenzoyl)phenyl]-1,2,3,4,4a,10b-hexahydrophenanthridine]	7.46
COc1cc2c(cc1OC)C1CCCCC1N=C2c1ccc(C(=O)c2ccncc2)cc1 (single isomer, unassigned; (-)) [Compound 32, (−)-cis-8,9-Dimethoxy-6-[4-(pyridyl-4-carbonyl)phenyl]-1,2,3,4,4a,10b-hexahydrophenanthridine]	7.45
CCOc1cc2c(cc1OC)C(c1ccc(OCC3CC3)c(OCC3CC3)c1)=NC1CCCCC21 (single isomer, unassigned; (-)) [Compound 40, (−)-cis-9-Ethoxy-8-methoxy-6-[3,4-bis(cyclopropylmethoxy)phenyl]-4,2,3,4,4a,10b-hexahydrophenanthridine]	8.65
COc1cc2c(cc1OC)[C@@H]1CCCC[C@@H]1N=C2c1ccc(C(=O)c2ccc([N+](=O)[O-])cc2)cc1 [Compound 29, (−)cis-8,9-Dimethoxy-6-[4-(4-nitrobenzoyl)phenyl]-1,2,3,4,4a,10b-hexahydrophenanthridine]	7.28
COc1cc2c(cc1OC)[C@@H]1CCCC[C@@H]1N=C2c1ccc(OC)c(OCc2ccccc2)c1 [Compound 11, (+)-cis-6-(3-Benzyloxy-4-methoxyphenyl)-8,9-dimethoxy-1,2,3,4,4a,10b-hexahydrophenanthridine]	8.03
COc1cc2c(cc1OC)[C@@H]1CCCC[C@@H]1N=C2c1ccc(OC)c(OCC2CC2)c1 [Compound 12, (−)-cis-8,9-Dimethoxy-6-[3-cyclopropylmethoxy4-methoxyphenyl]-1,2,3,4,4a,10b-hexahydrophenanthridine]	7.80
